Measurements from ChEMBL document CHEMBL3352145, “Structure-based design of novel human Pin1 inhibitors (III): optimizing affinity beyond the phosphate recognition pocket” (Bioorg Med Chem Lett, 2014).
Values after ≈ are worked out from the molar mass of the structure shown. Values belong to the compound of their own block, whether it stands above or below them. Active and inactive are the calls of the source. The calls are words filed in the database; no cut-off is given here.

Tests used:
[1] = Aqueous solubility of the compound; format: physicochemical; conditions: buffer
[2] = target: Peptidyl-prolyl cis-trans isomerase NIMA-interacting 1 (Homo sapiens, UniProt Q13526); experiment: Inhibition of Pin1 (unknown origin)
Peptidyl-prolyl cis-trans isomerase NIMA-interacting 1, sequence (Q13526 whole entry): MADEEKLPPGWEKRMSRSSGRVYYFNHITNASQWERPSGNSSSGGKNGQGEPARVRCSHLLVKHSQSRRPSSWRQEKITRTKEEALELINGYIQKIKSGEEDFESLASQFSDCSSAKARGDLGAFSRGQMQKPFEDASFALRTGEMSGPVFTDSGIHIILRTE

[3] = Lipophilicity, log P of the compound; format: physicochemical; conditions: octanol/water
[4] = Dissociation constant, pKa of the compound; format: physicochemical
HT-29 [5] = experiment: Antiproliferative activity against human HT-29 cells; format: functional, cell-based
HT-29 [6] = experiment: Induction of histological changes in human HT-29 cells assessed as fragmented phenotype at 50 uM by DAPI staining; format: functional, cell-based
HT-29 [7] = experiment: Cell cycle arrest in human HT-29 cells assessed as cells accumulation at G2/M phase at 50 uM by FACS analysis (reference value: 6.2%); format: functional
HT-29 [8] = experiment: Cell cycle arrest in human HT-29 cells assessed as cells accumulation at S phase at 50 uM by FACS analysis (reference value: 37%); format: functional
HT-29 [9] = experiment: Cell cycle arrest in human HT-29 cells assessed as cells accumulation at G0/G1 phase at 50 uM by FACS analysis (reference value: 56.9%); format: functional
HT-29 [10] = experiment: Cell cycle arrest in human HT-29 cells assessed as cells accumulation at sub G1 phase at 50 uM by FACS analysis (Rvb =<1%); format: functional

SMILES: O=C(NC(Cc1nc2ccccc2[nH]1)C(=O)O)c1ccc2ccccc2c1 (racemic)
Ki [2]: 1000 nM

SMILES: O=C(N[C@H](Cc1nc2cc(F)ccc2[nH]1)C(=O)O)c1ccc2ccccc2c1
Ki [2]: 80 nM

SMILES: O=C(NC(Cc1cc2ccccc2o1)C(=O)O)c1ccc2ccccc2c1 (centres undefined)
Ki [2]: 10000 nM

SMILES: Cc1ccc2[nH]c(C[C@@H](NC(=O)c3ccc4ccccc4c3)C(=O)O)nc2c1
Ki [2]: 780 nM

SMILES: Cc1ccc2[nH]c(C[C@@H](NC(=O)c3cc4ccccc4s3)C(=O)O)nc2c1
Ki [2]: 424 nM

SMILES: O=C(N[C@H](Cc1nc2cc(F)ccc2[nH]1)C(=O)O)c1cc2ccccc2s1
Ki [2]: 76 nM

SMILES: O=C(N[C@H](Cc1nc2cc(Cl)ccc2[nH]1)C(=O)O)c1ccc2ccccc2c1
Ki [2]: 173 nM

SMILES: O=C(N[C@H](Cc1nc2cc(Cl)ccc2[nH]1)C(=O)O)c1cc2ccccc2s1
Ki [2]: 189 nM

SMILES: O=C(N[C@H](Cc1nc2ccccc2s1)C(=O)O)c1ccc2ccccc2c1
Ki [2]: 46000 nM

SMILES: O=C(NC(Cc1cc2ccccc2[nH]1)C(=O)O)c1ccc2ccccc2c1 (centres undefined)
Ki [2]: 1900 nM

Now from value to compound, other results behind:

solubility [1]: > 120 µg/mL | Ki [2]: 138 nM | logP [3]: 2.59 | pKa [4]: 3.92
SMILES: O=C(N[C@H](Cc1cc2ccc(F)cc2[nH]1)C(=O)O)c1ccc2ccccc2c1

solubility [1]: > 100 µg/mL | Ki [2]: 75 nM | logP [3]: 3.5 | pKa [4]: 3.9
SMILES: O=C(CCc1c(Cl)cccc1Cl)N[C@H](Cc1cc2ccc(F)cc2[nH]1)C(=O)O

Ki [2]: 580 nM | IC50 (HT-29 [5]): 1900 nM
SMILES: O=C(O)C1(Cc2cc3ccc(F)cc3[nH]2)CSC(/C=C/c2c(Cl)cccc2Cl)=N1 (racemic)

solubility [1]: > 100 µg/mL | Ki [2]: 12 nM | logP [3]: 3.6 | pKa [4]: 3.9
SMILES: O=C(CC1c2ccccc2-c2ccccc21)N[C@H](Cc1cc2ccc(F)cc2[nH]1)C(=O)O

Ki [2]: 196 nM | IC50 (HT-29 [5]): 4600 nM
SMILES: O=C(O)C1(Cc2cc3ccc(F)cc3[nH]2)CSC(CCc2c(Cl)cccc2Cl)=N1 (racemic)

solubility [1]: 106 µg/mL (≈ 272 µM) | Ki [2]: 400 nM | logP [3]: 2.49 | pKa [4]: 3.91
SMILES: O=C(Cc1cccc2ccccc12)N[C@H](Cc1cc2ccc(F)cc2[nH]1)C(=O)O

Ki [2]: 320 nM | IC50 (HT-29 [5]): 4200 nM
SMILES: O=C(O)C1(Cc2cc3ccc(F)cc3[nH]2)CSC(CC2c3ccccc3-c3ccccc32)=N1 (racemic)

Ki [2]: 1360 nM | IC50 (HT-29 [5]): 27000 nM
SMILES: O=C(O)C1(Cc2cc3ccc(F)cc3[nH]2)CSC(c2ccc3ccccc3c2)=N1 (racemic)
Activity (HT-29 [6]): Active | Activity (HT-29 [7]): 71.1% | Activity (HT-29 [8]): 18.7% | Activity (HT-29 [9]): 10.2% | Activity (HT-29 [10]): 5%
